Assays:
[1] = test system: P. aeruginosa (ATCC 27853); experiment: Protocol 3 time-dependent antimicrobial activity at one dose level; type: cell-based, Pseudomonas aeruginosa; details: for Bacterial growth, Buffer and L-indolicidin 50 μg/ml: 100 mM sodium phosphate buffer
Procedure: The objective of this protocol is to establish a procedure for determining the antimicrobial activity of indolicidin (e.g., L-IND) at 50 μg/ml over an extended exposure time up to 24 hours at room temperature. It is believed that this procedure more closely mimics the recommended use of lens-care products.
Exposure of the test organism to indolicidin occurs in a buffered solution for up to 24 hours with sampling for viability at different time intervals. Polypropylene 96-well microtiter plates and microcentrifuge tubes are used for exposure and dilution of indolicidin, respectively.
The following materials are used: sterile glass tubes containing 5 ml of Mueller-Hinton Broth (MHB), Mueller-Hinton agar plates, sterile 96-well polypropylene microtiter plates, and sterile polypropylene microcentrifuge tubes.
One or more of the following microorganisms are used in assays using this protocol or modification of this protocol: Pseudomonas aeruginosa (ATCC 9027), Pseudomonas aeruginosa (ATCC 27853), and S. aureus (ATCC 6538).
Five 5 ml of MHB tubes are innoculated with the tester strain(s) from MHA plates and grown overnight at 37° C. on a shaker (180 rpm). A micropipet tip is prewet for at least 2 minutes with 100 μl of the stock solution of indolicidin (e.g., L-IND). The test article is dispensed back in the stock solution vial and the pipette is reset to a volume of 10 μl. Polypropylene microcentrifuge tubes are used to dilute the stock of indolicidin (10 mg/ml) 10-fold in sterile water. To obtain a 10× solution of indolicidin with a dose level equivalent to 50 μg/ml dose level dilute 10 μl of the stock solution of indolicidin in 90 μl of sterile water. (The concentration of indolicidin in the final exposure volume of 100 μl will be 5 μg when 10 μl of the 10× solution is added to 100 μl of bacterial suspension). […]
Survival is determined by counting the colonies appearing on plates after overnight incubation at 37° C. The results are expressed as CFU/ml and survival is expressed as the percent of the bacteria that survived the treatment. […]

S. aureus (ATCC 6538) = experiment: Protocol 1 kill curve / MIC, 1 hour at 37° C.; type: cell-based, Staphylococcus aureus; details: 10 mM sodium phosphate buffer
Procedure: This protocol is used to develop dose-response (kill) curves to calculate the minimal inhibitory concentration of an indolicidin (e.g., L-indolicidin (L-IND)) when formulated in a commercially available phosphate buffered saline (PBS) solution. In addition, for comparative purposes, kill curves are established for the following three commonly available commercial lens-care products containing different preservatives:
The stock solutions are diluted in a 2-fold fashion by transferring 1 ml of each stock solution to 1 ml of appropriate diluent in sterile glass tubes (100×13 mm). Twelve additional 2-fold dilutions are made by transferring 1 ml aliquots of each dilution to 1 ml diluent. The diluent for all commercial lens-care products is PBS. […]
Viable counts of the bacteria are performed by 10-fold serial dilutions in sterile PBS and by plating 0.1 ml aliquots on nutrient agar plates. […] The plates are incubated overnight at 37° C. and colonies are counted and recorded. […]
Survival is expressed as number of surviving bacteria (CFU/ml) for each dilution of the test article and control solutions. The lowest dose of the test article that results in complete kill of the test organism, compared to the non-exposed control, is determined to be the MIC value. […]

Question: Which results are given for CC[C@H](C)[C@H](N)C(=O)N[C@@H](CC(C)C)C(=O)N1CCC[C@H]1C(=O)N[C@@H](Cc1c[nH]c2ccccc12)C(=O)N[C@@H](CCCCN)C(=O)N[C@@H](Cc1c[nH]c2ccccc12)C(=O)N1CCC[C@H]1C(=O)N[C@@H](Cc1c[nH]c2ccccc12)C(=O)N[C@@H](Cc1c[nH]c2ccccc12)C(=O)N1CCC[C@H]1C(=O)N[C@@H](Cc1c[nH]c2ccccc12)C(=O)N[C@@H](CCCNC(=N)N)C(=O)N[C@@H](CCCNC(=N)N)C(N)=O [L-indolicidin, H2N-ILPWKWPWWPWRR-CONH2]?
Answer: survival ([1]; 50 μg/ml, 100 mM sodium phosphate buffer pH 7.4, all time points 0-24 hours): no survival; Bacterial growth, Buffer and L-indolicidin 50 μg/ml ([1]; incubation time 0 hr): 0; Bacterial growth, Buffer and L-indolicidin 50 μg/ml ([1]; incubation time 24 hr): 0; log kill (S. aureus (ATCC 6538); 6.25 μg/ml): ~3 log; survival (S. aureus (ATCC 6538); 100, 50, 25 and 12.5 μg/ml, 4.1×10^5 CFU/ml): no detectable survival

Source: patent publication US6482799B1, “Self-preserving multipurpose ophthalmic solutions incorporating a polypeptide antimicrobial” (The Regents of the University of California, priority 1999, dated 2002)
